Test results taken from patent publication US20160129011A1, “BICYCLO 2,3-BENZODIAZEPINES AND SPIROCYCLICALLY SUBSTITUTED 2,3-BENZODIAZEPINES” (BAYER PHARMA AKTIENGESELLSCHAFT, priority 2013, published 2016).

Columns and labels:
[1] = test system: MOLM-13 cells; assay: Cell proliferation assay (alamarBlue), MOLM-13; format: cell-based; details: Homo sapiens, MOLM-13; acute myeloid leukaemia cell line, 96 h incubation
Protocol: In accordance with the invention, the ability of the substances to inhibit cell proliferation was determined. Cell viability was determined by means of the alamarBlue® reagent (Invitrogen) in a Victor X3 Multilabel Reader (Perkin Elmer). The excitation wavelength was 530 nm and the emission wavelength […].
The MOLM-13 cells (DSMZ, ACC 554) were sown at a concentration of 4000 cells/well in 100 μl of growth medium (RPMI1640, 10% FCS) on 96-well microtitre plates.
The MDA-MB-231 cells (DSMZ, ACC 732) were sown at a concentration of 4000 cells/well in 100 μl of growth medium (DMEM/Ham's F12 medium, 10% FCS) on 96-well microtitre plates. After overnight incubation at 37° C., the fluorescence values (CI values) were determined. Then the plates were treated with various substance dilutions (1E-5 M, 3E-6 M, 1E-6 M, 3E-7 M, 1E-7 M, 3E-8 M, 1E-8 M) and incubated at 37° C. for 72 (MV4-11, LOX-IMVI cells), 96 (MOLM-13, B16F10, […] cells), 120 (MOLP-8, KMS-12-PE cells) or 168 (LAPC-4 cells) hours. Subsequently, the fluorescence values were determined (CO values). For the data analysis, the CI values were subtracted from the CO values and the results were compared between cells which had been treated with various dilutions of the substance or only with buffer solution. This was used to calculate the IC50 values (substance concentration required for 50% inhibition of cell proliferation).
The substances were examined in the cell lines of Table 1 which, in an exemplary manner, represent the stated indications: […]

[2] = biological target: T1, BRD4 (BD1) (Homo sapiens, UniProt O60885); assay: Binding assay BRD4/acetylated peptide H4 (TR-FRET protein-protein interaction assay); details: BRD4 (BD1) / acetylated histone H4 peptide
T1 construct: longer constructs also being possible, preferably amino acids 44-168; made in house; host or cells: E. coli
Excerpt: To assess the BRD4 binding strength of the substances described in this application, the ability thereof to inhibit the interaction between BRD4 (BD1) and acetylated histone H4 in a dose-dependent manner was quantified.
For this purpose, a time-resolved fluorescence resonance energy transfer (TR-FRET) assay was used, which measures the binding between N-terminally His6-tagged BRD4 (BD1) (amino acids 67-152, longer constructs also being possible, preferably amino acids 44-168) and a synthetic acetylated histone H4 (Ac—H4) peptide with sequence GRGK(Ac)GGK(Ac)GLGK(Ac)GGAK(Ac)RHGSGSK-biotin. The recombinant BRD4 protein produced in-house according to Filippakopoulos et al., Nature, 2010, 468:1119-1123 was expressed in E. coli and purified by means of (Ni-NTA) affinity and (Sephadex G-75) size exclusion chromatography. The Ac—H4 peptide can be purchased, for example, from Biosyntan (Berlin, Germany).
In the assay, typically 11 different concentrations of each substance (0.1 nM, 0.33 nM, 1.1 nM, 3.8 nM, 13 nM, 44 nM, 0.15 μM, 0.51 μM, 1.7 μM, 5.9 μM and 20 μM) were analysed as duplicates on the same microtitre plate. For this purpose, 100-fold concentrated solutions in DMSO were prepared by serial dilutions (1:3.4) of a 2 mM stock solution into a clear, 384-well microtitre plate (Greiner Bio-One, Frickenhausen, Germany). From this, 50 nl were transferred into a black test plate (Greiner Bio-One, Frickenhausen, Germany). The test was started by the addition of 2 μl of a 2.5-fold concentrated BRD4 solution (final concentration typically 10 nM in the 5 μl of reaction volume) in aqueous assay buffer [50 mM HEPES pH 7.5, 50 mM sodium chloride (NaCl), 0.25 mM CHAPS and 0.05% serum albumin (BSA)] to the substances in the test plate. This was followed by a 10-minute incubation step at 22° C. for the pre-equilibration of putative complexes between BRD4 and the substances.
The mixture was then incubated in the dark at 22° C. for one hour and then at 4° C. for at least 3 hours and for no longer than overnight. The formation of BRD4/Ac—H4 complexes was determined by the measurement of the resonance energy transfer from the streptavidin-Eu cryptate to the anti-6His-XL665 antibody present in the reaction. For this purpose, the fluorescence emission was measured at 620 nm and 665 nm after excitation at 330-350 nm in a TR-FRET measuring instrument, for example a Rubystar or Pherastar (both from BMG Lab Technologies, Offenburg, Germany) or a Viewlux (Perkin-Elmer). The ratio of the emissions at 665 nm and at […] was taken as an indicator of the amount of BRD4/Ac—H4 complexes formed.
The data (ratios) obtained were normalized, with 0% inhibition corresponding to the mean from the measurements for a set of controls (typically 32 data points) in which all the reagents were present. In these, in place of test substances, 50 nl of DMSO (100%) were used. Inhibition of 100% corresponded to the mean from the measurements for a set of controls (typically 32 data points) in which all the reagents except BRD4 were present. The IC50 was determined by regression analysis based on a 4-parameter equation (minimum, maximum, IC50, Hill; Y=max+(min−max)/(1+(X/IC50)^Hill)).

Row | SMILES | IC50 [2] [µM] | IC50 [1] [µM]
1 | CNC(=O)N1N=C(c2ccc(N3[C@@H]4CC[C@H]3CC(=O)C4)cc2)c2cc(OC)c(OC)cc2C[C@H]1C [Example 6.1, (4R)-7,8-dimethoxy-N,4 dimethyl-1-[4-(3-oxo-8-azabicyclo[3.2.1]oct-8-yl)phenyl]-4,5-dihydro-3H-2,3-benzodiazepine-3-carboxamide] | 1.23 | 0.45
2 | CNC(=O)N1N=C(c2ccc(N3C[C@@H]4C[C@H]3CO4)cc2)c2cc(OC)c(OC)cc2C[C@@H]1C [Example 35, (4S)-7,8-dimethoxy-N,4-dimethyl-1-{4-[(1S,4S)-2-oxa-5-azabicyclo[2.2.1]hept-5-yl]phenyl}-4,5-dihydro-3H-2,3-benzodiazepine-3-carboxamide] | 4.11 | 
3 | CNC(=O)N1N=C(c2ccc(N3CC4(CN(C(=O)OC(C)(C)C)C4)C3)cc2)c2cc(OC)c(OC)cc2C[C@H]1C [Example 8.2, tert-butyl 6-{4-[(4R)-7,8-dimethoxy-4-methyl-3-(melhylcarbamoyl)-4,5-dihydro-3H-2,3-benzodiazepine-1-yl]phenyl}-2,6-diazaspiro[3.3]heptane-2-carboxylate] | 2.05 | 
4 | CNC(=O)N1N=C(c2ccc(N3C[C@@H]4C[C@H]3CN4C)cc2)c2cc(OC)c(OC)cc2C[C@@H]1C (relative stereo) [Example 40.2, [1S-[1R*,2(R*),4R*]]-7,8-Dimethoxy-N,4-dimethyl-1-[4-(5-methyl-2,5-diazabicyclo[2.2.1]hept-2-yl)phenyl]-4,5-dihydro-3H-2,3-benzodiazepine-3-carboxamide] | 0.52 | 
5 | CNC(=O)N1N=C(c2ccc(F)c(N3C[C@@H]4C[C@H]3CN4C)c2)c2cc(OC)c(OC)cc2C[C@@H]1C (relative stereo) [Example 41.2, [1S-(1R*,2(R*),4R*)]-1-[4-fluoro-3-(5-methyl-2,5-diazabicyclo[2.2.1]hept 2-yl)phenyl]-7,8-dimethoxy-4,5-dihydro-N,4-dimethyl-3H-2,3-benzodiazepine-3-carboxamide] | 0.38 | 
6 | CNC(=O)N1N=C(c2ccc(N3CC4(CCS4(=O)=O)C3)cc2)c2cc(OC)c(OC)cc2C[C@H]1C [Example 3.2, (4R)-1-[4-(1,1-Dioxido-1-thia-6-azaspiro[3.3]hept-6-yl)phenyl]-7,8-dimethoxy-N,4-dimethyl-4,5-dihydro-3H-2,3-benzodiazepine-3-carboxamide] | 2.58 | 
7 | CNC(=O)N1N=C(c2ccc(N3C4CCC3CC(=O)NC4)cc2)c2cc(OC)c(OC)cc2CC1C (racemic) [Example 39, (±)-7,8-Dimethoxy-N,4-dimethyl-1-[4-(4-oxo-3,9-diazabicyclo[4.2.1]non-9-yl)phenyl]-4,5-dihydro-3H-2,3-benzodiazepine-3-carboxamide] | 0.12 | 
8 | CNC(=O)N1N=C(c2ccc(N3CC4(COC4)C3)cc2)c2cc(OC)c(OC)cc2C[C@H]1C [Example 5.2, (4R)-7,8-dimethoxy-N,4-dimethyl-1-[4-(2-oxa-6-azaspiro[3.3]hept-6-yl)phenyl]-4,5-dihydro-3H-2,3-benzodiazepine-3-carboxamide] | 1.36 | 
9 | CNC(=O)N1N=C(c2ccc(N3CCC4(CCCC4)CC3)cc2)c2cc(OC)c(OC)cc2C[C@@H]1C [Example 9.1, (4S)-1-[4-(8-azaspiro[4.5]dec-8-yl)phenyl]-7,8-dimethoxy-N,4-dimethyl-4,5-dihydro-3H-2,3-benzodiazepine-3-carboxamide] | 0.2 | 
10 | CNC(=O)N1N=C(c2ccc(N3CC4(CCS4(=O)=O)C3)cc2)c2cc(OC(F)(F)F)ccc2C[C@H]1C [Example 18.1, (4R)-1-[4-(1,1-dioxido-1-thia-6-azaspiro[3.3]hept-6-yl)phenyl]-N,4-dimethyl-8-(trifluoromethoxy)-4,5-dihydro-3H-2,3-benzodiazepine-3-carboxamide] | 11.5 | 
11 | CNC(=O)N1N=C(c2ccc(F)c(N3C[C@@H]4C[C@H]3CN4C)c2)c2cc(OC)c(OC)cc2C[C@H]1C (relative stereo) [Example 41.1, [1S-(1R*,2(S*),4R*)]-1-[4-fluoro-3-(5-methyl-2,5-diazabicyclo[2.2.1]hept-2-yl)phenyl]-7,8-dimethoxy-4,5-dihydro-N,4-dimethyl-3H-2,3-benzodiazepine-3-carboxamide] | 16.5 | 
12 | CNC(=O)N1N=C(c2ccc(N3CCC4(CCCC4)CC3)cc2)c2cc(OC)c(OC)cc2C[C@H]1C [Example 9.2, (4R)-1-[4-(8-azaspiro[4.5]dec-8-yl)phenyl]-7,8-dimethoxy-N,4-dimethyl-4,5-dihydro-3H-2,3-benzodiazepine-3-carboxamide] | > 20 | 

Molecules with a lower IC50 [2], results first:

Row | IC50 [2] [µM] | SMILES | IC50 [1] [µM]
13 | 0.02 | CNC(=O)N1N=C(c2ccc(N3C(=O)[C@@H]4CC[C@H]3C4)cc2)c2cc(OC)c(OC)cc2C[C@@H]1C (relative stereo) [Example 2, {1S-[1R*,2(S*),4S*]}-7,8-dimethoxy-N,4-dimethyl-1-[4-(-3-oxo-2-azabicyclo[2.2.1]hept-2-yl)phenyl]-4,5-dihydro-3H-2,3-benzodiazepine-3-carboxamide] | 
14 | 0.07 | CNC(=O)N1N=C(c2ccc(N3CC4(C3)CS(=O)(=O)C4)cc2)c2cc(OC)c(OC)cc2CC1C (racemic) [Example 34, (±)-1-[4-(2,2-dioxido-2-thia-6-azaspiro[3.3]hept-6-yl)phenyl]-7,8-dimethoxy-N,4-dimethyl-4,5-dihydro-3H-2,3-benzodiazepine-3-carboxamide] | 
15 | 0.11 | CNC(=O)N1N=C(c2ccc(N3CCC4(CC3)COC(=O)N4)cc2)c2cc(OC)c(OC)cc2CC1C (racemic) [Example 32] | 
16 | 0.04 | CNC(=O)N1N=C(c2ccc(N3CC4(CCS4(=O)=O)C3)cc2)c2cc(-n3nc(C)cc3C)ccc2CC1C (racemic) [Example 17, (±)-8-(3,5-dimethyl-1H-pyrazol-1-yl)-1-[4-(1,1-dioxido-1-thia-6-azaspiro[3.3]hept-6-yl)phenyl]-N,4-dimethyl-4,5-dihydro-3H-2,3-benzodiazepine-3-carboxamide] | 
17 | 0.1 | CNC(=O)N1N=C(c2ccc(N3CCC4(CCN(C)C4)CC3)cc2)c2cc(OC)c(OC)cc2CC1C (racemic) [Example 31, (±)-7,8-dimethoxy-N,4-dimethyl-1-[4-(2-methyl-2,8-diazaspiro[4.5]dec-8-yl)phenyl]-4,5-dihydro-3H-2,3-benzodiazepine-3-carboxamide] | 
18 | 0.1 | CNC(=O)N1N=C(c2ccc(N3CCC4(CC3)CNC(=O)C4)cc2)c2cc(OC)c(OC)cc2CC1C (racemic) [Example 28, (±)-7,8-Dimethoxy-N,4-dimethyl-1-[4-(3-oxo-2,8-diazaspiro[4.5]dec-8-yl)phenyl]-4,5-dihydro-3H-2,3-benzodiazepine-3-carboxamide] | 
